The text below walks through data of ChEMBL document CHEMBL1156028, “Synthesis of 1,6,7,8-tetrahydro-naphtho[2,3-d]-azepino[4,5-b]indole-9,14-diones and their inhibitory effects on pro-inflammatory cytokines” (Bioorg Med Chem Lett, 2009).

The test system of data set [1] is RAW264.7. In words: Antiinflammatory activity in mouse RAW264.7 cells assessed as inhibition of LPS-induced IL1-beta production at 1 to 5 ug/ml after 24 hrs by immunoassay. Type of data set: functional, cell-based.
Data set [2] relates to RAW264.7. Put plainly: Antiinflammatory activity in mouse RAW264.7 cells assessed as inhibition of LPS-induced nitric oxide production after 24 hrs by immunoassay. Type of data set: functional, cell-based.
Data set [3] concerns RAW264.7. Put plainly: Antiinflammatory activity in mouse RAW264.7 cells assessed as inhibition of LPS-induced TNFalpha production after 24 hrs by immunoassay. Format: functional, cell-based.
For data set [4], the system named is RAW264.7. In words: Antiinflammatory activity in mouse RAW264.7 cells assessed as inhibition of LPS-induced PGE2 production at 5 ug/ml after 24 hrs by immunoassay. Type of data set: functional, cell-based.
Data set [5] deals with RAW264.7. In words: Antiinflammatory activity in mouse RAW264.7 cells assessed as inhibition of LPS-induced IL-6 production at 1 to 5 ug/ml after 24 hrs by immunoassay. Type of data set: functional, cell-based.
Data set [6] is described as follows: Cytotoxicity against mouse RAW264.7 cells assessed as cell viability at 1 to 5 ug/ml after 4 hrs by MTT assay. Type of data set: cell-based. The following applies: read-out: Activity.
In data set [7] the test system is RAW264.7. In words: Antiinflammatory activity in mouse RAW264.7 cells assessed as inhibition of LPS-induced PGE2 production at 1 ug/ml after 24 hrs by immunoassay. Format: functional, cell-based.

The source made the active and inactive calls. No cut-off for these calls is given here.

`C=CCN1CCc2c([nH]c3ccccc23)C2=C1C(=O)c1ccccc1C2=O`: the result in the data set with RAW264.7 [1] and with RAW264.7 [5] was inactive. Besides, the Activity result in the data set on RAW264.7 [2] and in the data set with RAW264.7 [3] was “Dose-dependent effect” each time. Also, in the data set on RAW264.7 [4], the outcome was Active. Moreover, the viability at 4 h in data set [6] was 24%.
Turning to `COc1ccc2[nH]c3c(c2c1)CCNC1=C3C(=O)c2ccccc2C1=O`, the outcome with RAW264.7 [1] and with RAW264.7 [5] was inactive. The inhibition result in the data set with RAW264.7 [7] is “inactive”. Also, the Activity result in the data set on RAW264.7 [2] and with RAW264.7 [3] was “Dose-dependent effect” in each case. Further, in the data set on RAW264.7 [4], the result was Active. Moreover, the viability at 4 h in data set [6] worked out at 58%.
Regarding `O=C1C2=C(C(=O)c3ccccc31)c1[nH]c3ccccc3c1CCN2`, the outcome in the data set on RAW264.7 [1] and in the data set with RAW264.7 [5] was inactive. In the data set with RAW264.7 [7], the inhibition entry is “inactive”. Further, the Activity result in the data set with RAW264.7 [2] and with RAW264.7 [3] was “Dose-dependent effect” each time. For the same compound, the result in the data set on RAW264.7 [4] was Active. Moreover, the viability at 4 h in data set [6] stood at 58%.
For `CN1CCc2c([nH]c3ccccc23)C2=C1C(=O)c1ccccc1C2=O`, the result in the data set on RAW264.7 [1] and with RAW264.7 [5] was inactive. The Activity entry with RAW264.7 [2] and in the data set on RAW264.7 [3] was “Dose-dependent effect” each time. In the data set on RAW264.7 [4], the result was Active. The viability at 4 h in data set [6] turned out to be 58%.
Regarding `O=C1C2=C(C(=O)c3ccccc31)N(Cc1ccccc1)CCc1c2[nH]c2ccccc12`, the outcome in the data set on RAW264.7 [1] and in the data set with RAW264.7 [5] was inactive. Moreover, the inhibition entry with RAW264.7 [7] is “inactive”. Moreover, the Activity result with RAW264.7 [2] and in the data set on RAW264.7 [3] was “Dose-dependent effect” in each case. The outcome in the data set on RAW264.7 [4] was Active. Moreover, the viability at 4 h in data set [6] was 58%.
In the case of `COc1cccc2c1C(=O)C1=C(NCCc3c1[nH]c1ccccc31)C2=O`, the outcome with RAW264.7 [1] and in the data set with RAW264.7 [5] was inactive. Further, the inhibition entry with RAW264.7 [7] was “inactive”. For the same compound, the Activity entry in the data set with RAW264.7 [2] and in the data set with RAW264.7 [3] was “Dose-dependent effect” in each case. In the data set with RAW264.7 [4], the outcome was Active. Besides, the viability at 4 h in data set [6] was determined as 58%.
As for `CCCN1CCc2c([nH]c3ccccc23)C2=C1C(=O)c1ccccc1C2=O`, the result in the data set with RAW264.7 [1] and with RAW264.7 [5] was inactive. Besides, the Activity entry in the data set on RAW264.7 [2] and in the data set with RAW264.7 [3] was “Dose-dependent effect” in each case. For the same compound, in the data set on RAW264.7 [4], the outcome was Active. Also, the viability at 4 h in data set [6] is 58%.
